We go through 10 compounds from publication PMC9823735, “Inhibition of Leishmania infantum Trypanothione Reductase by New Aminopropanone Derivatives Interacting with the NADPH Binding Site” (Molecules, 2023).

For test [1], the system named is L. infantum promastigotes. On the set-up: method as in PMID 30475811. The conditions noted are these: read-out: IC50 anti-proliferative effect; cited from earlier work.
The subject of test [2] is hGR. On the set-up: method as in PMID 30475811. The settings on record: cited from earlier work.
Test [3] deals with T1, LiTR (Leishmania infantum, UniProt A4HSF7).
T1 construct: LiTR has been expressed and purified as reported previously; made in house
T1 sequence (A4HSF7 1-491): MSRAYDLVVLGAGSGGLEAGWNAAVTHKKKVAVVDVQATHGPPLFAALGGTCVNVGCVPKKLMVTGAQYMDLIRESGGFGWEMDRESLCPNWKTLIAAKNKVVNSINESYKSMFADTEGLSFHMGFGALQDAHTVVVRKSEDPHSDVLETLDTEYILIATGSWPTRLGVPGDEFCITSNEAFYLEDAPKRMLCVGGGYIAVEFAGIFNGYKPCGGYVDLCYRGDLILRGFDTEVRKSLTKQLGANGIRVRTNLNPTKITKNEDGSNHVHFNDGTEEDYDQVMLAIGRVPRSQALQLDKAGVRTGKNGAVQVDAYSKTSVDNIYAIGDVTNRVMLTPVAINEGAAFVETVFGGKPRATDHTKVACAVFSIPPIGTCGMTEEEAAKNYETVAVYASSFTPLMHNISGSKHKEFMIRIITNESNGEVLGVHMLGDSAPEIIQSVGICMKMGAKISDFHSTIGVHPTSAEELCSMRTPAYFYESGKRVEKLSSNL
On the set-up: method as in PMID 30475811. The conditions noted are these: residual LiTR activity with 100 μM inhibitor; reference compound; cited from earlier work.

Test [4] deals with T1, LiTR. Nature of the test: LiTR enzymatic inhibition assay (NADPH oxidation, absorbance at 340 nm). In kind it is biochemical. The conditions noted are these: for activity at 100 µM: read-out: LiTR Activity (% at 100 µM). How it is done: (§1) Furthermore, the best acting compound, namely 2b, reduced the activity of the enzyme by 47%.
Enzymatic inhibition assays were performed at 25 °C using a JASCO V650 spectrophotometer equipped with a JASCO EHC-716 Peltier unit. LiTR (50 nM) was mixed with 100 μM of the compounds and 150 μM trypanothione in 50 mM HEPES pH 7.4, 40 mM NaCl, and incubated at 25 °C for 3 min. The reaction was started upon addition of 100 μM NADPH. Oxidation of the NADPH was followed as a decrease in absorbance at 340 nm. The best inhibitor candidate (2b) was then tested under the same conditions at concentrations ranging from 0.1 to 200 μM to determine the IC50. LiTR activity was determined as V0(compound)/V0(control)*100, where V0 is the initial velocity. The IC50 was determined using a dose response logistic equation defined by the Kaleidagraph software as ymin + (ymax-ymin)/(1 + (x/IC50)^slope).

The target in test [5] is T2, human homolog glutathione reductase (Homo sapiens, UniProt P00390).
T2 construct: purchased Sigma Aldrich
T2 sequence (P00390 44-522): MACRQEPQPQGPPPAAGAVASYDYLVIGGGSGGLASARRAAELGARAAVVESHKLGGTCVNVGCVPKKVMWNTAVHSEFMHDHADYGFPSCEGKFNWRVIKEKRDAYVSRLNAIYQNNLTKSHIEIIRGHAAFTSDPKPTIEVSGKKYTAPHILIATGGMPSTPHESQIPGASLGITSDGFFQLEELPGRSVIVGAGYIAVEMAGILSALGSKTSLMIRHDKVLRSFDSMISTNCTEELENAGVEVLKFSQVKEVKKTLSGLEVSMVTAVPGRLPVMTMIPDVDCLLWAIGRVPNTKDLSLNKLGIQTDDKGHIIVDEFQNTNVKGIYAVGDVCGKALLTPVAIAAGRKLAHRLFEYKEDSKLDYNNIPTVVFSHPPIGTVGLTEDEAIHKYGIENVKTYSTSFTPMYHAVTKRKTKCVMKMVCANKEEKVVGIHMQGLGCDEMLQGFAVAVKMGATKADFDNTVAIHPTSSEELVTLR
Nature of the test: Glutathione reductase inhibition assay (NADPH oxidation, absorbance at 340 nm). In kind it is biochemical. The method, then:
as §1
Figure S9: Conformation of compound 3c with the lowest energy in the most populated cluster.
Figure S10. Inhibition kinetics of the glutathione reductase in the presence of compound 2b. Inhibition assays were performed at 25 °C using a JASCO V650 spectrophotometer equipped with a JASCO EHC-716 Peltier unit. Glutathione Reductase (GR) 50 nM, (purchased from Sigma Aldrich) was mixed with varying concentrations of compound 2b (0.1 to 200 μM) and 150 μM oxidized glutathione in 50 mM HEPES pH 7.4, 40 mM NaCl; and incubated at 25°C for 3 minutes. The reaction was started upon addition of 100 μM NADPH. Oxidation of NADPH was followed as a decrease in absorbance at 340 nm. GR activity was determined as V0(compound)/V0(control)*100 where V0 is the initial velocity. The IC50 was determined using a dose response logistic equation defined by the Kaleidagraph software as ymin+(ymax-ymin)/(1+(x/IC50)^slope). […]

What is called IC50 is the midpoint of a concentration-inhibition curve. In the case of `CCN(CC)CCOC(=O)c1ccc(NCCC(=O)c2ccc([N+](=O)[O-])cc2)cc1` [Compound 1, 2-(diethylamino)ethyl 4-((3-(4-nitrophenyl)-3-oxopropyl)amino)benzoate], the IC50 is 12.4 µM in test [1] and greater than 85 µM in test [2]. In test [3], the “LiTR Activity (% at 100 µM)” value was <10.0 [10] %.

On to `CCN(CC)CCOC(=O)c1ccc(NCCC(=O)c2ccc(-c3ccccc3)cc2)cc1` [Compound 2a, 2-(Diethylamino)ethyl 4-((3-([1,1’-biphenyl]-4-yl)-3-oxopropyl)amino)benzoate], for which the activity at 100 µM in test [4] was determined as 55.4 ± 13.3%.

Turning to `CCN(CC)CCOC(=O)c1ccc(NCCC(=O)c2ccc(-c3ccc(Cl)cc3)cc2)cc1` [Compound 2b, 2-(Diethylamino)ethyl 4-((3-(4’-chloro-[1,1’-biphenyl]-4-yl)-3-oxopropyl)amino)benzoate], in test [4] (100 μM compound), the “residual LiTR activity” value is recorded as 47%. Also, the IC50 was 65 µM in test [4] (25 °C, 150 μM trypanothione, 100 μM NADPH, average of three experiments) and greater than 150 µM in test [5] (25 °C, 50 nM GR, 150 μM oxidized glutathione, 100 μM NADPH). In addition, the activity at 100 µM in test [4] was found to be 47 ± 9.7%. Besides, the “IC50 on glutathione reductase relative to IC50 on TR (selectivity)” value in test [5] (GR versus LiTR) is “more than two-fold higher”.

With `CCN(CC)CCOC(=O)c1ccc(NCCC(=O)c2ccc(Br)cc2)cc1` [Compound 2c, 2-(Diethylamino)ethyl 4-((3-(4-bromophenyl)-3-oxopropyl)amino)benzoate], in test [4], the activity at 100 µM worked out at 73.8 ± 4.6%.

Consider `CCN(CC)CCOC(=O)c1ccc(NCCC(=O)c2ccccc2)cc1` [Compound 2d, 2-(Diethylamino)ethyl 4-((3-oxo-3-phenylpropyl)amino)benzoate], for which the activity at 100 µM in test [4] came out at 73.8 ± 4.4%.

Turning to `CCN(CC)CCOC(=O)c1ccc(NCCC(=O)c2ccc(F)cc2)cc1` [Compound 2e, 2-(Diethylamino)ethyl 4-((3-(4-fluorophenyl)-3-oxopropyl)amino)benzoate], in test [4], the activity at 100 µM came to 60.5 ± 4.1%.

As to `CCN(CC)CCOC(=O)c1ccc(N(CCC(=O)c2ccc(F)cc2)CCC(=O)c2ccc(F)cc2)cc1` [Compound 2f, 2-(Diethylamino)ethyl 4-(bis(3-(4-fluorophenyl)-3-oxopropyl)amino)benzoate], the activity at 100 µM in test [4] was found to be 75 ± 2.4%.

Regarding `CCN(CC)CCNC(=O)c1ccc(NCCC(=O)c2ccc(-c3ccccc3)cc2)cc1` [Compound 3a, 4-((3-([1,1’-Biphenyl]-4-yl)-3-oxopropyl)amino)-N-(2-(diethylamino)ethyl)benzamide], the activity at 100 µM in test [4] was 68.4 ± 6.7%.

Turning to `CCN(CC)CCNC(=O)c1ccc(NCCC(=O)c2ccc(-c3ccc(Cl)cc3)cc2)cc1` [Compound 3b, 4-((3-(4’-Chloro-[1,1’-biphenyl]-4-yl)-3-oxopropyl)amino)-N-(2-(diethylamino)ethyl)benzamide], in test [4], the activity at 100 µM amounted to 59.4 ± 2.4%.

As for `CCN(CC)CCNC(=O)c1ccc(NCCC(=O)c2ccc(Br)cc2)cc1` [Compound 3c, 4-((3-(4-Bromophenyl)-3-oxopropyl)amino)-N-(2-(diethylamino)ethyl)benzamide], the activity at 100 µM in test [4] was 87.3 ± 1.9%.
